Source: US11548845B2, “Methods of isolating phenols from phenol-containing media” (WISCONSIN ALUMNI RESEARCH FOUNDATION, priority 2019, dated 2023)
Several values for one entry are separate records, joined by “and”; a condition that tells them apart may be missing. Equal entries are not always repeated. Marks after values point to notes of the source that are not given here.

Assays:
[1] = surfactants of Table 2; cited from earlier work
[2] = Interaction of 1% w/v lecithin with individual polyphenols, depletion from solution by HPLC; details: pH 2.43, anthocyanins depleted from single-strength cranberry juice, others from aqueous solution
Procedure: Aqueous polyphenol solutions near saturation were prepared by dissolving the individual polyphenols in 50 mL ultrapure water. Depends on their solubility in water, the polyphenols solutions were made in different concentrations. […] The pH of the solution was then adjusted to ˜2.43 using 6 M HCl in order to approximate the pH of juice. The adjusted solution was centrifuged at 3220×g for 20 min to remove any undissolved solids. Next, 1% w/v lecithin was added to 10 mL of the supernatant containing the polyphenols or the phenolic acids. The mixture was vortexed for 1 min and then centrifuged at 3220×g for 20 min to pellet any precipitate. The supernatant was transferred to a 2 mL microcentrifuge tube and was centrifuged for another 20 min at 21130×g before HPLC analysis. The depletion of individual polyphenol content expressed as a percent was determined according to the following equation: Polyphenol and phenolic acid content remaining in the supernatant were quantitated by reverse phase HPLC using a Dionex Ultimate 3000 HPLC equipped with an LPG-3400 quaternary pump, a WPS-3000 analytical autosampler, a DAD-3000 diode array detector, and an FLD-3100 fluorescence detector. […] Separation was with formic acid:water (5:95, v/v) (A) and methanol (B). The flow rate was set to 1 mL/min. The gradient was initially 5% B for 1 min, then increased to 35% B over 39 min, from 35% to 95% B over the next 10 min, and held constant at 95% B for 5 min, then decreased to 5% B over 2 min, and re-equilibrated at 5% B for the remaining 8 min. The column oven was set to 30° C. The absorbance was monitored at 254, 280, 370 and 520 nm. […] The gallic acid peaks in the 280 nm chromatogram was quantitated on the basis of authentic external standards. […] The flow rate was set to 0.5 mL/min. The gradient began at 15% B for 2 min, increased to 90% B over 6 min, then decreased to 15% B over 1 min and re-equilibrated at 15% B for the remaining 1 min. The column oven was set to 25° C. We collected absorbance data at 254, 280, 370 and 520 nm. All the peaks were identified in comparison to authentic external standards.

[3] = values from literature; cited from earlier work
[4] = cited from earlier work; for pka: phospholipid components of lecithin
[5] = Depletion of monomeric anthocyanins in diluted cranberry juice by surfactants, lecithins or phospholipids (pH differential method)
Procedure: Classic Mash Cranberry Juice Concentrate with essence returned was received frozen from the supplier (Ocean Spray Cranberries Inc., Lakeville-Middleboro, Mass., U.S.A.). The concentrate came at 50.0° Brix from manufacturer. It was immediately thawed, aliquoted and stored at −20° C. until use. Prior to experiment use, the concentrate was thawed, brought to room temperature, and diluted to 7.5° Brix according to the manufacture specification.
Individual surfactants/phospholipids were added to 10 mL juice samples at a final concentration of 0.01 M. Varying amounts of lecithin were added to 10 mL juice samples at 0.05, 0.1, 0.5, 1, 2, 3, 4, or 5% w/v. Lecithin with different HLB values were added to 10 mL juice samples at 1, 2, 3, 4, or 5% w/v. All mixtures were then vortexed for 3 min and then centrifuged at 3220×g for 20 min. The centrifugation step was repeated with the supernatants. All procedures were carried out at ambient temperatures unless otherwise specified.
Monomeric anthocyanin (MA) content was determined by the AOAC pH differential method. Samples were placed in 96-well plates (Thermo Scientific) for spectral acquisition using a SpectraMax Plus Microplate Reader (Molecular Devices, Sunnyvale, Calif., U.S.A.). We used the SoftMax Pro 5.4.4 to scale for pathlength (Molecular Devices, Sunnyvale, Calif., U.S.A.). Juice samples were diluted such that the absorbance at 520 nm was within the linear range of the instrument. Triplicate samples were analyzed, and the average values are reported.
The depletion of MA expressed as a percent was determined according to the following equation: […]

[6] = 0.01M phospholipid in cranberry juice

For `CCCCCCCCCCCCOS(=O)(=O)[O-].[Na+]` [sodium dodecyl sulfate], the HLB value [1] is listed as 40.
In the case of `Oc1cc(O)c2c(c1)O[C@H](c1ccc(O)c(O)c1)[C@@H](O)C2` [(+)-catechin], the Depletion % [2] is given as 18.4%, the Depletion % ([2]; listed as (+)-Catechin) is given as 18.4±0.5% and the “Log P” value [3] is given as 0.51^†.
With peonidin-3-O-arabinoside the Depletion % [2] was 10.1% and the Depletion % ([2]; listed as peonidin-3-O-arabinose) was 10.1±6.3%.
In the case of `CCCCCCCC/C=C\CCCCCCCC(=O)OCC(CO)OC(=O)CCCCCCC/C=C\CCCCCCCC` (stereo not shown) [glycerol dioleate], the HLB value [1] is listed as 1.9.
In the case of `O=c1c(O)c(-c2ccc(O)c(O)c2)oc2cc(O)cc(O)c12` [quercetin], the Depletion % [2] is listed as 41.3%, the Depletion % ([2]; listed as Quercetin) is listed as 41.3±1.8% and the “Log P” value [3] is listed as 1.82 ± 0.32.
In the case of L-a-phosphatidylinositol (soy) [PI], the pka [4] is listed as 2.5, the “Depletion % of monomeric anthocyanins” value [5, 6] is listed as 41.4±8.5% and 41.4 ± 8.5^a % and the “Depletion % of monomeric anthocyanins” value ([5]; 0.01M phospholipid in cranberry juice, listed as Phosphatidylinositol (PI)) is listed as 41.4±8.5%.
In the case of `CCCCCCCC/C=C\CCCCCCCC(=O)[O-].[Na+]` [sodium oleate], the HLB value [1] is listed as 18.
For `Oc1cc(O)c2cc(O[C@@H]3OC[C@H](O)[C@H](O)[C@H]3O)c(-c3ccc(O)c(O)c3)[o+]c2c1` [cyanidin-3-O-arabinoside], the Depletion % [2] was 16.0% and the Depletion % ([2]; listed as cyanidin-3-O-arabinose) was 16.0±6.5%.
In the case of peonidin-3-O-galactoside, the Depletion % [2] is reported as 42.2% and the Depletion % ([2]; listed as Peonidin-3-O-galactoside) is reported as 42.2±4.1%.
In the case of `CCCCCCCC/C=C\CCCCCCCC(=O)O` [oleic acid], the HLB value [1] is given as 1.
For `CCCCCCCC/C=C\CCCCCCCC(=O)OCC(O)CO` (racemic) [glycerol monooleate], the HLB value [1] is listed as 3.4.
In the case of `O=C(O)c1cc(O)c(O)c(O)c1` [gallic acid], the Depletion % [2] is reported as “did not induce precipitation of lecithin”.
In the case of sorbitan monostearate, the HLB value [1] is given as 4.7.
For hexaglycerol dioleate, the HLB value [1] is given as 9.
In the case of `O=c1c(-c2ccc(O)cc2)coc2cc(O)cc(O)c12` [genistein], the Depletion % [2] is reported as 61.0% and the Depletion % ([2]; listed as Genistein) is reported as 61.0±3.8%.
For Phosphatidylcholine (soy) [PC], the pka [4] is listed as 1.0 and the “Depletion % of monomeric anthocyanins” value [5, 6] is listed as 6.69±3.57% and 6.69 ± 3.6^b %.
In the case of `COc1cc(-c2[o+]c3cc(O)cc(O)c3cc2O[C@@H]2O[C@H](CO)[C@@H](O)[C@H](O)[C@H]2O)ccc1O` [peonidin-3-O-glucoside], the Depletion % [2] is reported as 43.0±4.0% and 43.0%.
For `CCCCCCCCCCCC(=O)OCC(O)CO` (stereo not shown) [glycerol monolaurate], the HLB value [1] is listed as 5.2.
With “sorbitan tristearate [sorbitan tristearate (Span 65)]” the “Depletion % of monomeric anthocyanins” value ([5]; 0.01M surfactants in diluted cranberry juice) was 2.85% and the “Depletion % of monomeric anthocyanins” value ([5]; 0.01M surfactants in diluted cranberry juice, listed as sorbitan tristearate) was “no significant changes”.
For `CCCCCCCCCCCCCCCCCC(=O)OCC(O)CO` (racemic) [glycerol monostearate], the HLB value [1] is given as 3.8.
`Oc1cc(O)c2cc(O[C@H]3OC[C@H](O)[C@H](O)[C@H]3O)c(-c3cc(O)c(O)c(O)c3)[o+]c2c1` [delphinidin-3-O-arabinoside] gave a Depletion % [2] of 11.1% and a Depletion % ([2]; listed as Delphinidin-3-O-arabinose) of 11.1±4.9%.
In the case of sodium stearoyl lactylate, the HLB value [1] is listed as 5.1.
In the case of Phosphatidylethanolamine (soy) [PE], the “pKa of the amino group” value [4] is given as “about 9.5”, the pka [4] is given as 1.7 and the “Depletion % of monomeric anthocyanins” value [5, 6] is given as 10.4±2.5% and 10.4 ± 2.5^b %.
For triglycerol monostearate, the HLB value [1] is given as 7.
In the case of `OC[C@H]1O[C@@H](Oc2cc3c(O)cc(O)cc3[o+]c2-c2ccc(O)c(O)c2)[C@H](O)[C@@H](O)[C@H]1O` [cyanidin-3-O-galactoside], the Depletion % [2] is reported as 49.1±3.5% and 49.1%.
In the case of `OC[C@H]1O[C@@H](Oc2cc3c(O)cc(O)cc3[o+]c2-c2ccc(O)c(O)c2)[C@H](O)[C@@H](O)[C@@H]1O` [cyanidin-3-O-glucoside], the Depletion % [2] is listed as 45.0%, the Depletion % ([2]; listed as Cyanidin-3-O-glucoside) is listed as 45.0±3.5% and the “Log P” value [3] is listed as 0.39^†.
For `Oc1ccc(C=Cc2cc(O)cc(O)c2)cc1` [resveratrol], the “Log P” value [3] is listed as 2.57^†.
Work on `O=c1c(O[C@@H]2O[C@H](CO)[C@H](O)[C@H](O)[C@H]2O)c(-c2ccc(O)c(O)c2)oc2cc(O)cc(O)c12` [quercetin-3-O-galactoside] yielded a Depletion % [2] of 35.4% and a Depletion % ([2]; listed as Quercetin-3-O-galactoside) of 35.4±1.0%.
